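Method: 48-hour compound exposure of cells in 96-well plates, five concentrations, linear interpolation of endpoints. TGI is the concentration that stops growth completely.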
Legend:
Experiment in all cases: inhibition of tumour cell growth, NCI panel, 48 h
[1] = tested on: COLO 205 colon
[2] = tested on: SNB-19 CNS
[3] = tested on: T-47D breast
[4] = tested on: SF-539 CNS
[5] = tested on: SK-MEL-5 melanoma
[6] = tested on: NCI-H460 lung
[7] = tested on: NCI-H23 lung
[8] = tested on: SK-MEL-2 melanoma
[9] = tested on: SNB-75 CNS
[10] = tested on: DU-145 prostate
[11] = tested on: TK-10 renal
[12] = tested on: HT29 colon
[13] = tested on: OVCAR-3 ovarian
[14] = tested on: U251 CNS
[15] = tested on: BT-549 breast
[16] = tested on: MDA-N
[17] = tested on: NCI-H522 lung
[18] = tested on: OVCAR-8 ovarian
[19] = tested on: MDA-MB-231 breast
[20] = tested on: MCF7 breast
[21] = tested on: SW-620 colon
[22] = tested on: SN12C renal
[23] = tested on: IGROV1 ovarian
[24] = tested on: SF-268 CNS
[25] = tested on: LOX IMVI melanoma
[26] = tested on: CAKI-1 renal
[27] = tested on: NCI-H226 lung
[28] = tested on: HOP-62 NSCLC
[29] = tested on: KM12 colon
[30] = tested on: RXF 393 renal
[31] = tested on: HCT-15 colon
[32] = tested on: MALME-3M melanoma
[33] = tested on: ACHN renal
[34] = tested on: HCT-116 colon
[35] = tested on: SK-MEL-28 melanoma
[36] = tested on: K-562 leukemia
[37] = tested on: UACC-257 melanoma
[38] = tested on: MDA-MB-435
[39] = tested on: M14 melanoma
[40] = tested on: A498 renal
[41] = tested on: A549 NSCLC
[42] = tested on: SF-295 CNS
[43] = tested on: EKVX NSCLC
[44] = tested on: SK-OV-3 ovarian
[45] = tested on: MOLT-4 leukemia
[46] = tested on: HCC-2998 colon
[47] = tested on: OVCAR-4 ovarian
[48] = tested on: HS 578T breast
[49] = tested on: HOP-92 NSCLC
[50] = tested on: RPMI-8226 leukemia
[51] = tested on: NCI/ADR-RES ovarian
[52] = tested on: OVCAR-5 ovarian
[53] = tested on: UACC-62 melanoma
[54] = tested on: 786-0 renal
[55] = tested on: UO-31 renal
[56] = tested on: SR leukemia
[57] = tested on: PC-3 prostate
[58] = tested on: HL-60(TB) leukemia
[59] = tested on: CCRF-CEM leukemia

Oc1cccnc1CN1CCCCC1
TGI [1]: > 100 µM | TGI [2]: > 100 µM | TGI [3]: > 100 µM | TGI [4]: > 100 µM | TGI [5]: > 100 µM | TGI [6]: > 100 µM | TGI [7]: > 100 µM | TGI [8]: > 100 µM | TGI [9]: > 100 µM | TGI [10]: > 100 µM | TGI [11]: > 100 µM | TGI [12]: > 100 µM | TGI [13]: > 100 µM | TGI [14]: > 100 µM | TGI [15]: > 100 µM | TGI [16]: > 100 µM | TGI [17]: > 100 µM | TGI [18]: > 100 µM | TGI [19]: > 100 µM | TGI [20]: > 100 µM | TGI [21]: > 100 µM | TGI [22]: > 100 µM | TGI [23]: > 100 µM | TGI [24]: > 100 µM | TGI [25]: > 100 µM | TGI [26]: > 100 µM | TGI [27]: > 100 µM | TGI [28]: > 100 µM | TGI [29]: > 100 µM | TGI [30]: > 100 µM | TGI [31]: > 100 µM | TGI [32]: > 100 µM | TGI [33]: > 100 µM | TGI [34]: > 100 µM | TGI [35]: > 100 µM | TGI [36]: > 100 µM | TGI [37]: > 100 µM | TGI [38]: > 100 µM | TGI [39]: > 100 µM | TGI [40]: > 100 µM | TGI [41]: > 100 µM | TGI [42]: > 100 µM | TGI [43]: > 100 µM | TGI [44]: > 100 µM | TGI [45]: > 100 µM | TGI [46]: > 100 µM | TGI [47]: > 100 µM | TGI [48]: > 100 µM | TGI [49]: > 100 µM | TGI [50]: > 100 µM | TGI [51]: > 100 µM | TGI [52]: > 100 µM | TGI [53]: > 100 µM | TGI [54]: > 100 µM | TGI [55]: > 100 µM | TGI [56]: > 100 µM | TGI [57]: > 100 µM

CC1(C)NC2C(=O)c3c([nH]c4ccccc34)[C@]3(C)CCC1CC23 (some centres not stated)
TGI [1]: > 100 µM | TGI [3]: 90.8 µM | TGI [4]: > 100 µM | TGI [5]: > 100 µM | TGI [6]: > 100 µM | TGI [7]: > 100 µM | TGI [8]: > 100 µM | TGI [9]: > 100 µM | TGI [10]: > 100 µM | TGI [11]: > 100 µM | TGI [58]: > 100 µM | TGI [12]: > 100 µM | TGI [13]: > 100 µM | TGI [14]: > 100 µM | TGI [15]: > 100 µM | TGI [16]: > 100 µM | TGI [17]: > 100 µM | TGI [18]: > 100 µM | TGI [19]: > 100 µM | TGI [20]: > 100 µM | TGI [21]: > 100 µM | TGI [22]: > 100 µM | TGI [23]: > 100 µM | TGI [24]: > 100 µM | TGI [25]: > 100 µM | TGI [26]: > 100 µM | TGI [27]: > 100 µM | TGI [28]: > 100 µM | TGI [29]: > 100 µM | TGI [30]: > 100 µM | TGI [31]: > 100 µM | TGI [32]: > 100 µM | TGI [33]: > 100 µM | TGI [34]: > 100 µM | TGI [35]: > 100 µM | TGI [36]: > 100 µM | TGI [37]: > 100 µM | TGI [38]: > 100 µM | TGI [40]: > 100 µM | TGI [41]: > 100 µM | TGI [42]: > 100 µM | TGI [43]: > 100 µM | TGI [45]: > 100 µM | TGI [46]: > 100 µM | TGI [47]: > 100 µM | TGI [48]: > 100 µM | TGI [49]: > 100 µM | TGI [50]: > 100 µM | TGI [51]: > 100 µM | TGI [52]: > 100 µM | TGI [53]: > 100 µM | TGI [59]: > 100 µM | TGI [54]: > 100 µM | TGI [55]: > 100 µM | TGI [56]: > 100 µM | TGI [57]: > 100 µM

O=C1C(CN2CCCCC2)CCC1CN1CCCCC1 (configuration not stated)
TGI [1]: 40.7 µM | TGI [2]: > 100 µM | TGI [3]: 36.5 µM | TGI [4]: 56.1 µM | TGI [5]: > 69.3 µM | TGI [6]: > 100 µM | TGI [7]: 53.7 µM | TGI [8]: 52.6 µM | TGI [9]: > 75.6 µM | TGI [10]: > 100 µM | TGI [11]: 37 µM | TGI [12]: 40.4 µM | TGI [13]: 26.5 µM | TGI [14]: > 73.2 µM | TGI [15]: 34 µM | TGI [16]: 22.2 µM | TGI [17]: 11.1 µM | TGI [18]: > 68.9 µM | TGI [19]: 42.3 µM | TGI [20]: 43 µM | TGI [21]: 16 µM | TGI [22]: 45.5 µM | TGI [23]: 49.7 µM | TGI [24]: > 74.8 µM | TGI [25]: 31.7 µM | TGI [26]: 25 µM | TGI [27]: > 100 µM | TGI [28]: > 100 µM | TGI [29]: > 69.7 µM | TGI [30]: 28.3 µM | TGI [31]: 47.4 µM | TGI [32]: 49 µM | TGI [33]: 47.5 µM | TGI [34]: 49.5 µM | TGI [35]: 41.2 µM | TGI [37]: 47.1 µM | TGI [38]: 51.8 µM | TGI [39]: 32 µM | TGI [40]: 29.2 µM | TGI [41]: > 100 µM | TGI [42]: > 46.4 µM | TGI [43]: > 100 µM | TGI [44]: > 100 µM | TGI [45]: 3.79 µM | TGI [46]: > 62.5 µM | TGI [48]: > 73.2 µM | TGI [49]: 54.6 µM | TGI [50]: 28.4 µM | TGI [51]: 64.2 µM | TGI [52]: 47.8 µM | TGI [53]: 32.3 µM | TGI [59]: 3.97 µM | TGI [54]: 41.7 µM | TGI [55]: 22.1 µM | TGI [56]: 3.75 µM | TGI [57]: > 57.6 µM

Oc1ccccc1C(Sc1nc2ccccc2s1)Sc1nc2ccccc2s1
TGI [1]: > 100 µM | TGI [2]: > 100 µM | TGI [3]: 73.5 µM | TGI [5]: > 100 µM | TGI [6]: > 100 µM | TGI [7]: > 100 µM | TGI [8]: > 100 µM | TGI [9]: > 100 µM | TGI [10]: > 100 µM | TGI [11]: > 100 µM | TGI [58]: > 100 µM | TGI [12]: > 100 µM | TGI [13]: > 100 µM | TGI [14]: > 100 µM | TGI [15]: > 100 µM | TGI [16]: > 100 µM | TGI [17]: 56.8 µM | TGI [18]: > 100 µM | TGI [19]: > 100 µM | TGI [20]: > 100 µM | TGI [21]: > 100 µM | TGI [22]: > 100 µM | TGI [23]: > 100 µM | TGI [24]: > 100 µM | TGI [25]: > 100 µM | TGI [26]: > 100 µM | TGI [27]: > 100 µM | TGI [28]: > 100 µM | TGI [29]: > 100 µM | TGI [30]: > 100 µM | TGI [31]: > 100 µM | TGI [32]: > 100 µM | TGI [33]: > 100 µM | TGI [34]: > 100 µM | TGI [35]: > 100 µM | TGI [36]: > 100 µM | TGI [37]: > 100 µM | TGI [38]: > 100 µM | TGI [39]: > 100 µM | TGI [40]: > 100 µM | TGI [41]: > 100 µM | TGI [42]: > 100 µM | TGI [43]: 77.9 µM | TGI [44]: > 100 µM | TGI [45]: > 100 µM | TGI [46]: > 100 µM | TGI [47]: > 100 µM | TGI [48]: > 100 µM | TGI [49]: 95 µM | TGI [50]: > 100 µM | TGI [51]: > 100 µM | TGI [52]: > 100 µM | TGI [53]: > 100 µM | TGI [59]: > 100 µM | TGI [54]: > 100 µM | TGI [55]: > 100 µM | TGI [56]: > 100 µM | TGI [57]: > 100 µM

Reference: PubChem BioAssay (NCI)
